Where a SMILES comes first, the peptide text is derived from it. The star is where a group is joined. Cbz = O=C(OCc1ccccc1)*
How the values were obtained:
wild type murine p97 = wild type murine p97 (Mus musculus, UniProt Q01853); assay: In vitro ATP hydrolysis (malachite green ATPase assay), wild type murine p97; assay type: biochemical; conditions: 200 nM p97, 20 min preincubation at 23° C., malachite green; read-out: In vitro ATP Hydrolysis Activity IC50 WT-mP97
Experimental: (§1) Compounds were tested for their ability to inhibit the ATPase activity of purified wild type murine p97 and T532C-Cdc48, a mutant of yeast Cdc48 in which the residue analogous to cysteine 522, threonine 532, was converted to cysteine.

T532C-Cdc48 = T532C-Cdc48 (Saccharomyces cerevisiae, UniProt P25694, T532C); assay: In vitro ATP hydrolysis (malachite green ATPase assay), T532C-Cdc48; assay type: biochemical, yeast
Chain of T532C-Cdc48 (P25694 whole entry T532C): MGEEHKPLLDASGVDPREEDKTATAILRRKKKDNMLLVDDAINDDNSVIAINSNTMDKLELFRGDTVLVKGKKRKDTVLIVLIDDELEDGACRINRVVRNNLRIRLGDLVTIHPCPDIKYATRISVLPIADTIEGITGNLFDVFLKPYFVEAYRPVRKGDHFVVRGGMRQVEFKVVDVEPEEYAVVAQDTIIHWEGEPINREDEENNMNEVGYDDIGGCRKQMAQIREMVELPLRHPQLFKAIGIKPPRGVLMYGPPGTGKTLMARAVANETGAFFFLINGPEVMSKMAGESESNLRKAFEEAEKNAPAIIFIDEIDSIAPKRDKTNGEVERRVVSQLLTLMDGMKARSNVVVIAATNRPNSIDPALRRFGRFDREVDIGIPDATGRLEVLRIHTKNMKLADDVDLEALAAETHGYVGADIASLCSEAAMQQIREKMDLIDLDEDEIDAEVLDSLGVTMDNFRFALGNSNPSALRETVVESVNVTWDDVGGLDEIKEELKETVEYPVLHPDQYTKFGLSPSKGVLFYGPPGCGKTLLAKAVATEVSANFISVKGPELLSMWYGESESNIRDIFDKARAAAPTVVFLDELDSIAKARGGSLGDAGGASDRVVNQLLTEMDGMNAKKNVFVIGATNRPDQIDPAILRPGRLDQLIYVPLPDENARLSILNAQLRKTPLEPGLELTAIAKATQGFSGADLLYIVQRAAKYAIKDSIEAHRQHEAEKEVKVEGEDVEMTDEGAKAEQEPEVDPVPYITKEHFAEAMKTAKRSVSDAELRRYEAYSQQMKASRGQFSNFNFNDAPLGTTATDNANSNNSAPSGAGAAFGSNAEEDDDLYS
Experimental: as §1
To determine whether cysteine 522 is necessary for inhibition of p97 by compound 2, a mutant of p97 was constructed in which cysteine 522 was converted to either alanine (C522A-mp97) or threonine (C522T-mp97). The IC50 values of compound 2 were measured the against various enzymes during a 20-minute preincubation (see Table 2). Mutation of cysteine 522 in p97 to either alanine or threonine decreased sensitivity to compound 2 by greater than 100-fold. On the other hand, yeast Cdc48, which normally is quite resistant to compound 2, became nearly 30-fold more sensitive to the compound upon introduction of a cysteine in place of threonine 532.

HeLa = assay: MTT cell growth assay, HeLa; assay type: cell-based; conditions: Homo sapiens, 48 or 72 h, read-out: Cell line inhibition of growth GI50 HeLa
Experimental: (§2) To probe further the effect of compound 2 and related compounds 1, 3, 5, 6 and 7, various concentrations of these compounds were added to 13 different cell lines and incubated for 48 or 72 h. An MTT assay was then performed to evaluate cell growth and survival.

MCF7 = assay: MTT cell growth assay, MCF7; assay type: cell-based; conditions: Homo sapiens, 48 or 72 h, read-out: Cell line inhibition of growth GI50 MCF7
Experimental: as §2

MDAMB-231 = assay: MTT cell growth assay, MDAMB-231; assay type: cell-based; conditions: Homo sapiens, MDA-MB-231, 48 or 72 h, read-out: Cell line inhibition of growth GI50 MDAMB-231
Experimental: as §2

RPMI8226 = assay: MTT cell growth assay, RPMI8226; assay type: cell-based; conditions: Homo sapiens, RPMI-8226, 48 or 72 h, read-out: Cell line inhibition of growth GI50 RPMI8226
Experimental: as §2

RL = assay: MTT cell growth assay, RL; assay type: cell-based; conditions: Homo sapiens, 48 or 72 h, read-out: Cell line inhibition of growth GI50 RL
Experimental: as §2

Molt4 = assay: MTT cell growth assay, Molt4; assay type: cell-based; conditions: Homo sapiens, MOLT-4, 48 or 72 h, read-out: Cell line inhibition of growth GI50 Molt4
Experimental: as §2

CCRF-CEM = assay: MTT cell growth assay, CCRF-CEM; assay type: cell-based; conditions: Homo sapiens, 48 or 72 h, read-out: Cell line inhibition of growth GI50 CCRF-CEM
Experimental: as §2

HTC116 WT = assay: MTT cell growth assay, HTC116 WT; assay type: cell-based; conditions: 48 or 72 h, read-out: Cell line inhibition of growth GI50 HTC116 WT
Experimental: as §2

HCT116 p53−/− = assay: MTT cell growth assay, HCT116 p53−/−; assay type: cell-based; conditions: Homo sapiens, HCT-116, 48 or 72 h, read-out: Cell line inhibition of growth GI50 HCT116 p53−/−
Experimental: as §2

LNCaP = assay: MTT cell growth assay, LNCaP; assay type: cell-based; conditions: Homo sapiens, 48 or 72 h, read-out: Cell line inhibition of growth GI50 LNCaP
Experimental: as §2

DU145 = assay: MTT cell growth assay, DU145; assay type: cell-based; conditions: Homo sapiens, DU-145, 48 or 72 h, read-out: Cell line inhibition of growth GI50 DU145
Experimental: as §2

PC3 = assay: MTT cell growth assay, PC3; assay type: cell-based; conditions: Homo sapiens, PC-3, 48 or 72 h, read-out: Cell line inhibition of growth GI50 PC3
Experimental: as §2

[1] = tested on: HeLa cell line that stably expresses UbG76V-GFP; assay: Accumulation of UbG76V-GFP in HeLa cells (fluorescence microscopy); assay type: cell-based; conditions: fluorescence microscopy
Experimental: As a control, the same cells were treated with the proteasome inhibitor MG132. In the latter set of experiments, a HeLa cell line that stably expresses UbG76V-GFP was transfected with either wild type (WT), D1 mutant (E305Q), D2 mutant (E578Q) or E305Q, E578Q double mutant (QQ) murine 97-pcDNA4.1 plasmid (0.05 μg/100 μL) in a 96-well plate. After 23 h, the intensity of UbG76V-GFP signal was measured on a Molecular Devices ImageXpress automated fluorescence microscope. […] The direct accumulation of Ub-G76V-GFP caused by compound 2 at 25 μM is 4-fold less than that caused by MG132 at 2 μM. This is likely due to the fact that only fully folded Ub-G76V-GFP should require p97 for degradation by the proteasome.
As a second test of whether compound 8 can inhibit p97 in vivo, it was evaluated whether it can cause accumulation of the UbG76V-GFP reporter. A HeLa cell line that stably expresses UbG76V-GFP was treated with compound 8 for 1 h at 37° C., and was then evaluated by fluorescence microscopy. As a control, the same cells were treated with the proteasome inhibitor MG132. […] The level of GFP fluorescence was quantified in cells treated with compound 8 at different doses and for different periods of time (FIG. 28).

Ub-G76V-GFP/HeLa cells = assay: Degradation of pre-accumulated Ub-G76V-GFP (cycloheximide chase after MG132 washout); assay type: cell-based; conditions: for % K: relative to 0 μM
Experimental: To evaluate this possibility, an assay was developed to determine the rate of degradation of pre-accumulated Ub-G76V-GFP molecules. […] Cells were then washed with PBS three times remove the MG132. Cells were then refreshed by adding DMEM containing cycloheximide (50 μg/mL; to block production of more Ub-G76V-GFP) and test compounds (0˜10 μM) were added into cells. Eight 96-well plates were prepared and one of the plates was imaged at 25, 50, 70, 100, 110, 125, 145, or 170 min after washing with PBS three times. After washing out MG132, degradation of pre-accumulated Ub-G76V-GFP appears to follow pseudo-first order reaction. Rate constant (K; 1/min) can be determined from the slope of plotting Ln (Fold Accumulation) versus Time (min) (see FIG. 17 and FIG. 18).
Ub-G76V-GFP/HeLa cells were treated with MG132 (2 μM) for 1 h and washed with PBS three times. DMEM containing cycloheximide (50 μg/mL) and compound 8 (0-10 μM) was added into cells. Eight 96-well plates were prepared and one of the plates was imaged at 25, 50, 70, 100, 110, 125, 145, or 170 min after washing with PBS three times.

MRC5-WT = assay: CellTiter-Glo growth inhibition, parental MRC5 cells; assay type: cell-based; conditions: Homo sapiens, 48 h at 37° C., read-out: Cell line inhibition of growth GI50 MRC5-WT
MRC5-SV40 = assay: CellTiter-Glo growth inhibition, MRC5 cells engineered to express SV40; assay type: cell-based

Chain of wild type murine p97 (Q01853 whole entry): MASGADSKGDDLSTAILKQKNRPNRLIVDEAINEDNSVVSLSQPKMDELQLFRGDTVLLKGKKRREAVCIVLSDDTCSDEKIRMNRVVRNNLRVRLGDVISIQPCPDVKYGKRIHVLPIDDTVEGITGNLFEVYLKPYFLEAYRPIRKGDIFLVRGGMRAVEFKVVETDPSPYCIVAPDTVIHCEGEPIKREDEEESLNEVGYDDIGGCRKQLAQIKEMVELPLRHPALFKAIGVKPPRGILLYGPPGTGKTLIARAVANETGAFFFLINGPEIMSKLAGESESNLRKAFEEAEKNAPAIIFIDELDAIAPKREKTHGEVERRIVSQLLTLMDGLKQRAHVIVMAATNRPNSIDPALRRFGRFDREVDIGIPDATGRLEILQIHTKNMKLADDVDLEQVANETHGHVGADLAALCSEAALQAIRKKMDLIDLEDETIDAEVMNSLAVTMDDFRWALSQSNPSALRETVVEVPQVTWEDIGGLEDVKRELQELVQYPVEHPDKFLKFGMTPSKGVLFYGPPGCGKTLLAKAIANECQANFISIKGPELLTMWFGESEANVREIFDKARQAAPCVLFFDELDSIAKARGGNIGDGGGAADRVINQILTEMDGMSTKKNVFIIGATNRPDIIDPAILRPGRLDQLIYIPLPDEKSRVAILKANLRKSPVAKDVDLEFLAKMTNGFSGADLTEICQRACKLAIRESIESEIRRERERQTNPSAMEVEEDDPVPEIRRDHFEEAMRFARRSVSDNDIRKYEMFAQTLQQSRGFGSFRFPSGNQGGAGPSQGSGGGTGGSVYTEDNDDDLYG

SMILES	IC50 (wild type murine p97) [nM]	IC50 (T532C-Cdc48) [nM]	GI50 (HeLa) [nM]	GI50 (MCF7) [nM]	GI50 (MDAMB-231) [nM]	GI50 (RPMI8226) [nM]	GI50 (RL) [nM]	GI50 (Molt4) [nM]	GI50 (CCRF-CEM) [nM]	GI50 (HTC116 WT) [nM]	GI50 (HCT116 p53−/−) [nM]	GI50 (LNCaP) [nM]	GI50 (DU145) [nM]	GI50 (PC3) [nM]	further results
C=CC(=O)Nc1ncnc2c1c(-c1ccc3ccccc3c1)nn2C(C)(C)C [Compound 6]	3000 ± 1000	24000 ± 7000	1200 ± 200	1900 ± 400	5900 ± 2600	1200 ± 300	1300 ± 400	700 ± 100	1300 ± 400	2800 ± 1600	2400 ± 1000	2500 ± 700	2300 ± 700	300 ± 230	–
C=CC(=O)N(C(=O)C=C)c1ncnc2c1c(-c1ccc3ccccc3c1)nn2C(C)(C)C [Compound 7]	1300 ± 700	22000 ± 11000	1800 ± 600	3600 ± 1000	21000 ± 11000	3400 ± 1700	1400 ± 700	1200 ± 500	2400 ± 1100	5500 ± 1400	13000 ± 4000	11000 ± 4000	4900 ± 600	6200 ± 1200	–
CC(C)C[C@@H](C=O)NC(=O)[C@H](CC(C)C)NC(=O)[C@H](CC(C)C)NC(=O)OCc1ccccc1 [MG132, reference compound] (Cbz-Leu-Leu-Leu-aldehyde)	–	–	–	–	–	–	–	–	–	–	–	–	–	–	accumulation of UbG76V-GFP ([1]; 1 h at 37° C.): caused detectable accumulation of UbG76V-GFP; accumulation of UbG76V-GFP ([1]; 4 hours at 37° C.): caused accumulation of UbG76V-GFP; K, rate constant of Ub-G76V-GFP degradation (Ub-G76V-GFP/HeLa cells; 0.01 μM): 0.0336 min⁻¹; % K (Ub-G76V-GFP/HeLa cells; 0.01 μM): 88%; K, rate constant of Ub-G76V-GFP degradation (Ub-G76V-GFP/HeLa cells; 0.04 μM): 0.0322 min⁻¹; % K (Ub-G76V-GFP/HeLa cells; 0.04 μM): 84%; K, rate constant of Ub-G76V-GFP degradation (Ub-G76V-GFP/HeLa cells; 0.16 μM): 0.0260 min⁻¹; % K (Ub-G76V-GFP/HeLa cells; 0.16 μM): 68%; K, rate constant of Ub-G76V-GFP degradation (Ub-G76V-GFP/HeLa cells; 0.63 μM): 0.0095 min⁻¹; % K (Ub-G76V-GFP/HeLa cells; 0.63 μM): 25%; K, rate constant of Ub-G76V-GFP degradation (Ub-G76V-GFP/HeLa cells; 2.5 μM): 0.0005 min⁻¹; % K (Ub-G76V-GFP/HeLa cells; 2.5 μM): 1%; K, rate constant of Ub-G76V-GFP degradation (Ub-G76V-GFP/HeLa cells; 10 μM): 0.0009 min⁻¹; % K (Ub-G76V-GFP/HeLa cells; 10 μM): 2%; IC50 (Ub-G76V-GFP/HeLa cells; Homo sapiens, HeLa, 1 h, read-out: IC50 on the decay of Ub-G76V-GFP): 240 ± 40 nM
CC(C)C[C@H](NC(=O)[C@H](Cc1ccccc1)NC(=O)c1cnccn1)B(O)O [Velcade, reference compound]	–	–	–	–	–	–	–	–	–	–	–	–	–	–	GI50 (MRC5-WT): 200 ± 70 nM; GI50 (MRC5-SV40; Homo sapiens, MRC5, 48 h at 37° C., CellTiter-Glo, read-out: Cell line inhibition of growth GI50 MRC5-SV40): 100 ± 10 nM; greater sensitivity of SV40-transformed cells than WT cell line (MRC5-SV40; MRC5-SV40 vs MRC5-WT GI50): 2 fold
